Common to all, as to format: cell-based
Assay [1] deals with T1, IR (NIH-3T3 cells over expressing human IGF-1R or IR) (Homo sapiens, UniProt P06213).
T1 construct: expressed in transfected cells; host or cells: NIH-3T3 (mouse fibroblasts)
The assay can be described thus: IR cellular autophosphorylation (DELFIA). The following applies: NIH-3T3 cells over expressing IR, insulin stimulated. The procedure, abridged: (§1)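 Read-out: DELFIA on lysates, receptor-specific capture antibody plus europium-labelled anti-phosphotyrosine, reported as % of IGF-1- or insulin-stimulated signal. Transfected NIH-3T3 cells got compound (30 uM–1.5 nM, 2 h) before a 15 min ligand pulse: IGF-1 30 ng/mL for IGF-1R, insulin 3 ug/mL for IR.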

Assay [2] relates to NCI-H929 (multiple myeloma). Briefly: Inhibition of cell proliferation, CellTiter-Glo, NCI-H929. The following applies: Homo sapiens, 72 h. The method in brief: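 Cells were grown in medium with 10% FBS at 37° C, 5% CO2. Cell number was read as CellTiter-Glo luminescence (cellular ATP), with untreated wells as control.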
(In ATP-based viability assays light output follows the ATP content of the culture.)

The next assay deals with COLO205 (colon). The assay can be described thus: Inhibition of cell proliferation, CellTiter-Glo, COLO205. The following applies: Homo sapiens, COLO 205, 72 h. The procedure, abridged:
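Exponentially growing COLO205 cells in medium with 10% FBS were plated below 2000 cells/well at 37 °C, 5% CO2. Untreated wells served as controls.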

For assay [3], the target named is T2, human IGF-1R (NIH-3T3 cells over expressing human IGF-1R) (Homo sapiens, UniProt P08069).
T2 construct: expressed in transfected cells; host or cells: NIH-3T3 (mouse fibroblasts)
The assay can be described thus: IGF-1R cellular autophosphorylation (DELFIA). The conditions noted are these: IGF-1 stimulated. The method in brief:
as §1

Bounds are passed on as bounds.

T1 sequence (P06213 28-1382): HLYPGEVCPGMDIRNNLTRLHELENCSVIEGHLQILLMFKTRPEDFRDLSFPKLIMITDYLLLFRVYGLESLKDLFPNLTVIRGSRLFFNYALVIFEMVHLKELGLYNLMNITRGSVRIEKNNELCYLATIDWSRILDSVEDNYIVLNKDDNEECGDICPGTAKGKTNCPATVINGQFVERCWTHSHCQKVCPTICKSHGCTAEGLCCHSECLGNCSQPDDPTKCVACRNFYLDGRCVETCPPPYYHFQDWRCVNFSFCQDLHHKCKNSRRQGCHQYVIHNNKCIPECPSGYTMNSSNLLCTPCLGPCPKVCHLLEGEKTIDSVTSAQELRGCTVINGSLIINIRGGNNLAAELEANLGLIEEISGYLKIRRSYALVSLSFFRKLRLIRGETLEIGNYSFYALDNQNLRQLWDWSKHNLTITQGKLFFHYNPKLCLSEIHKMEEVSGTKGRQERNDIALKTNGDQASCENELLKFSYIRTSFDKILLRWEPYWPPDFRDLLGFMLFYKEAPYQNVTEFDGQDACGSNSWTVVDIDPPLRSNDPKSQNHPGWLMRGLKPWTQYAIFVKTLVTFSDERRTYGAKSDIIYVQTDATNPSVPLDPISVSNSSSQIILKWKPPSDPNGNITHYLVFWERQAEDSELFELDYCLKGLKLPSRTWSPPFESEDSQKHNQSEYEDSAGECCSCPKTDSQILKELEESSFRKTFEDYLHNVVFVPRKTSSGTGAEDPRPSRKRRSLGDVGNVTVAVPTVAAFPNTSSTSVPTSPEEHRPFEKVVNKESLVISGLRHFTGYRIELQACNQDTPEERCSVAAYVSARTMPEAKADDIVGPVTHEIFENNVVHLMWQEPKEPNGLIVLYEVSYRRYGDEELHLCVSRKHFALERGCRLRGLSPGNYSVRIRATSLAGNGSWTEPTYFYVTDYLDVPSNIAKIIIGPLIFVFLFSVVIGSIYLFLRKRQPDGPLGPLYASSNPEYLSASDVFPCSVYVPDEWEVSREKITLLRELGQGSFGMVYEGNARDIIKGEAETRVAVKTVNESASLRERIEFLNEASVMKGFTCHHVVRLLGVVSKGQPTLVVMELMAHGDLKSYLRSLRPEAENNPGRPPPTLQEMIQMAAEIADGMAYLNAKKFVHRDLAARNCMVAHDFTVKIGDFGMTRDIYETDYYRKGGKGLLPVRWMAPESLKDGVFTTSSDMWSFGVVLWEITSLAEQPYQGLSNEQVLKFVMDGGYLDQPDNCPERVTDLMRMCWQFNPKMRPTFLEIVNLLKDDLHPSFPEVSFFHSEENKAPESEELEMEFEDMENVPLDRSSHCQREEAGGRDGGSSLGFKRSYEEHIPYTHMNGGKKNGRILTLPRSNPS
T2 sequence (P08069 31-1367): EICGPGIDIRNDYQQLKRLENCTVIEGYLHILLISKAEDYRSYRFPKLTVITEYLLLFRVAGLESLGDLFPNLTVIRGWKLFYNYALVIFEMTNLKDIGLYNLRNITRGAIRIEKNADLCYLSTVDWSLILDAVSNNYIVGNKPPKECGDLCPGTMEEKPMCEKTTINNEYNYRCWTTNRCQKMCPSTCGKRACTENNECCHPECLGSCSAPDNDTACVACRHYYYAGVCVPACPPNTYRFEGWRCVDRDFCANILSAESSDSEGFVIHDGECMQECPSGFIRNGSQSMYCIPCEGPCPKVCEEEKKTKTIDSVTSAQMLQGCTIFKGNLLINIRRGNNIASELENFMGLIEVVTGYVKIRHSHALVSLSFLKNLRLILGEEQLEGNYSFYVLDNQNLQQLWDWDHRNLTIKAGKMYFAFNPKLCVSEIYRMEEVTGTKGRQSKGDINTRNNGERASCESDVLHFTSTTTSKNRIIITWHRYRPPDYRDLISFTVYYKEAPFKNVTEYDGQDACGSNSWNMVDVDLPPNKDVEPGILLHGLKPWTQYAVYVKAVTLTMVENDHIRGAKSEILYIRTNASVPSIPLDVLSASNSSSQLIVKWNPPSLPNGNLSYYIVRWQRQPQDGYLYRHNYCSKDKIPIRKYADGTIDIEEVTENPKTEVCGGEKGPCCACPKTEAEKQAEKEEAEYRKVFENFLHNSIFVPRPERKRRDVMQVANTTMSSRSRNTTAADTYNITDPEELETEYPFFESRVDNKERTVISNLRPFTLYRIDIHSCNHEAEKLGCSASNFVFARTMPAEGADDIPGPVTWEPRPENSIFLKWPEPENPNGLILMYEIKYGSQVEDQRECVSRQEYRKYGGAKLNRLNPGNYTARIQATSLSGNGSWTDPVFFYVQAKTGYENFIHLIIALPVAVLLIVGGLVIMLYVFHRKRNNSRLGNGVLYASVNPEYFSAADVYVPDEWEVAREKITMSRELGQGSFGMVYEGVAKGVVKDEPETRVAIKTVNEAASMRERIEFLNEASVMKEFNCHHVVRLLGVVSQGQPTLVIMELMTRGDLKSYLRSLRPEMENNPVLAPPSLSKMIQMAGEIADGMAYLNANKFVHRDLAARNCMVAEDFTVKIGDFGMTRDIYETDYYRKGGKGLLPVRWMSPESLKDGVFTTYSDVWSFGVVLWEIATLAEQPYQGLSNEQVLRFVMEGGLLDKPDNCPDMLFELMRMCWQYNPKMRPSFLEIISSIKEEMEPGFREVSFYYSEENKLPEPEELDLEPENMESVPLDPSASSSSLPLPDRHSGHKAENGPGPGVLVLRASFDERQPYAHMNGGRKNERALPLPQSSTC

Regarding `CS(=O)(=O)CCN1CCN(C2CCN(c3ccc(Nc4nccc(-c5c(-c6cccc(C(=O)Nc7c(F)cccc7F)c6)nc6ccccn56)n4)c(OCC(F)(F)F)c3)CC2)CC1` [Example 120, N-(2,6-difluorophenyl)-3-{3-[2-({4-(4-{4-[2-(methylsulfonyl)ethyl]-1-piperazinyl}-1-piperidinyl)-2-[(2,2,2-trifluoroethyl)oxy]phenyl}amino)-4-pyrimidinyl]imidazo[1,2-a]pyridin-2-yl}benzamide], the IC50 – broadly, the concentration at which inhibition is half-maximal – in assay [1] was < 100 nM; in assay [2] it was < 250 nM; in the assay with COLO205 (colon) it was 250 to 1000 nM; in assay [3], < 100 nM.

Regarding `CCOc1cc(N2CCC(N3CCN(CC(F)F)CC3)CC2)ccc1Nc1nccc(-c2c(-c3cccc(C(=O)Nc4c(F)cccc4F)c3)nc3ccccn23)n1` [Example 117, 3-[3-(2-{[4-{4-[4-(2,2-difluoroethyl)-1-piperazinyl]-1-piperidinyl}-2-(ethyloxy)phenyl]-amino}-4-pyrimidinyl)imidazo[1,2-a]pyridin-2-yl]-N-(2,6-difluorophenyl)benzamide], the IC50 was < 100 nM in assay [1], 250 to 1000 nM in assay [2], > 1000 nM in the assay on COLO205 (colon) and < 100 nM in assay [3].

As to `COc1cc(N2CCC(N3CCN(S(C)(=O)=O)CC3)CC2)c(C)cc1Nc1nccc(-c2c(-c3ccc(OC)c(C(=O)Nc4c(F)cccc4F)c3)nc3ccccn23)n1` [Example 236, N-(2,6-difluorophenyl)-5-(3-{2-[(5-methyl-2-(methyloxy)-4-{4-[4-(methylsulfonyl)-1-piperazinyl]-1-piperidinyl}phenyl)amino]-4-pyrimidinyl}imidazo[1,2-a]pyridin-2-yl)-2-(methyloxy)benzamide], the IC50 was < 100 nM in assay [1], < 250 nM in assay [2], < 250 nM in the assay with COLO205 (colon) and < 100 nM in assay [3].

For `COc1cc(N2CCC(N3CCN(CCF)CC3)CC2)ccc1Nc1nccc(-c2c(-c3ccc(OC)c(C(=O)Nc4c(F)cccc4F)c3)nc3ccccn23)n1` [Example 61, N-(2,6-difluorophenyl)-5-[3-(2-{[4-{4-[4-(2-fluoroethyl)-1-piperazinyl]-1-piperidinyl}-2-(methyloxy)phenyl]amino}-4-pyrimidinyl)imidazo[1,2-a]pyridin-2-yl]-2-(methyloxy)benzamide], the concentration for half-maximal inhibition (IC50) in assay [1] is < 100 nM; in assay [2], < 250 nM; in the assay with COLO205 (colon), 250 to 1000 nM; in assay [3] it was < 100 nM.

For the molecule `CCOc1ccc(-c2nc3ccccn3c2-c2ccnc(Nc3cc(C)c(N4CCCN(CCS(C)(=O)=O)CC4)cc3OC)n2)cc1C(=O)Nc1c(F)cccc1F` [Example 203, N-(2,6-difluorophenyl)-2-(ethyloxy)-5-(3-{2-[(5-methyl-2-(methyloxy)-4-{4-[2-(methylsulfonyl)ethyl)hexahydro-1H-1,4-diazepin-1-yl]phenyl)amino]-4-pyrimidinyl}imidazo[1,2-a]pyridin-2-yl)benzamide], the IC50 in assay [1] was < 100 nM; in assay [2], < 250 nM; in the assay on COLO205 (colon) it was < 250 nM; in assay [3] it was < 100 nM.

In the case of `COc1cc(N2CCC(N3CCCCC3)CC2)ccc1Nc1nccc(-c2c(-c3cccc(C(=O)Nc4c(F)cccc4F)c3)nc3c(F)cccn23)n1` [Example 190, 3-[3-(2-{[4-(1,4′-bipiperidin-1-yl)-2-(methyloxy)phenyl]amino}-4-pyrimidinyl)-8-fluoroimidazo[1,2-a]pyridin-2-yl]-N-(2,6-difluorophenyl)benzamide], the 50% inhibitory concentration (IC50) in assay [1] was 100 to 500 nM; in assay [2] it was 250 to 1000 nM; in the assay on COLO205 (colon) it was 250 to 1000 nM; in assay [3], < 100 nM.

On to `CCOc1ccc(-c2nc3ccccn3c2-c2ccnc(Nc3ccc(N4CCC(N5CCC(CCS(C)(=O)=O)CC5)CC4)cc3OC)n2)cc1C(=O)Nc1c(F)cccc1F` [Example 103, N-(2,6-difluorophenyl)-2-(ethyloxy)-5-(3-{2-[(2-(methyloxy)-4-{4-[2-(methylsulfonyl)ethyl]-1,4′-bipiperidin-1′-yl}phenyl)amino]-4-pyrimidinyl}imidazo[1,2-a]pyridin-2-yl)benzamide], for which the 50% inhibitory concentration (IC50) in assay [1] was < 100 nM; in assay [2], < 250 nM; with COLO205 (colon), 250 to 1000 nM; in assay [3], < 100 nM.

On to `CCc1cc(Nc2nccc(-c3c(-c4cccc(C(=O)Nc5c(F)cccc5F)c4)nc4ccccn34)n2)c(OC)cc1N1CCC(N2CCN(S(C)(=O)=O)CC2)CC1` [Example 244, N-(2,6-difluorophenyl)-3-(3-{2-[(5-ethyl-2-(methyloxy)-4-{4-[4-(methylsulfonyl)-1-piperazinyl]-1-piperidinyl}phenyl)amino]-4-pyrimidinyl}imidazo[1,2-a]pyridin-2-yl)benzamide], for which the IC50 in assay [1] was < 100 nM; in assay [2], 250 to 1000 nM; in the assay on COLO205 (colon) it was 250 to 1000 nM; in assay [3], < 100 nM.

Take `CCOc1cc(N2CCC(N3CCN(CCC(F)(F)F)CC3)CC2)ccc1Nc1nccc(-c2c(-c3cccc(C(=O)Nc4c(F)cccc4F)c3)nc3ccccn23)n1` [Example 118, N-(2,6-difluorophenyl)-3-(3-{2-[(2-(ethyloxy)-4-{4-[4-(3,3,3-trifluoropropyl)-1-piperazinyl]-1-piperidinyl}phenyl)amino]-4-pyrimidinyl}imidazo[1,2-a]pyridin-2-yl)benzamide]: the IC50 in assay [1] is 100 to 500 nM; in assay [2], 250 to 1000 nM; with COLO205 (colon), 250 to 1000 nM; in assay [3], 100 to 500 nM.

Consider `COCCN1CCN(c2ccc(Nc3nccc(-c4c(-c5ccc(OC)c(C(=O)Nc6c(F)cccc6F)c5)nc5ccccn45)n3)c(OC)c2)CC1` [Example 239, N-(2,6-difluorophenyl)-2-(methyloxy)-5-(3-{2-[(2-(methyloxy)-4-{4-[2-(methyloxy)ethyl]-1-piperazinyl}phenyl)amino]-4-pyrimidinyl}imidazo[1,2-a]pyridin-2-yl)benzamide], for which the IC50 was < 100 nM in assay [1], < 250 nM in assay [2], 250 to 1000 nM with COLO205 (colon) and < 100 nM in assay [3].

Take `CCOc1ccc(-c2nc3ccccn3c2-c2ccnc(Nc3ccc(C4CCN(CC(C)C)CC4)cc3OC)n2)cc1C(=O)Nc1c(F)cccc1F` [Example 161, N-(2,6-difluorophenyl)-2-(ethyloxy)-5-{3-[2-({2-(methyloxy)-4-[1-(2-methylpropyl)-4-piperidinyl]phenyl}amino)-4-pyrimidinyl]imidazo[1,2-a]pyridin-2-yl}benzamide]: the IC50 in assay [1] is < 100 nM; in assay [2] it was < 250 nM; in the assay on COLO205 (colon), 250 to 1000 nM; in assay [3], < 100 nM.

Consider `COc1cc(N2CCN3CCOC[C@@H]3C2)ccc1Nc1nccc(-c2c(-c3ccc(OC)c(C(=O)Nc4c(F)cccc4F)c3)nc3ccccn23)n1` [Example 124, N-(2,6-difluorophenyl)-5-[3-(2-{[4-[(9aS)-hexahydropyrazino[2,1-c][1,4]oxazin-8(1H)-yl]-2-(methyloxy)phenyl]amino}-4-pyrimidinyl)imidazo[1,2-a]pyridin-2-yl]-2-(methyloxy)-benzamide], for which the IC50 was < 100 nM in assay [1], < 250 nM in assay [2], > 1000 nM with COLO205 (colon) and < 100 nM in assay [3].

Regarding `COc1cc(C2CCN(C3CCN(CCF)CC3)CC2)ccc1Nc1nccc(-c2c(-c3cccc(C(=O)Nc4c(F)cccc4F)c3)nc3ccccn23)n1` [Example 100], the IC50 is < 100 nM in assay [1], 250 to 1000 nM in assay [2], 250 to 1000 nM in the assay with COLO205 (colon) and < 100 nM in assay [3].

Regarding `COc1cc(N2CCN(CCS(C)(=O)=O)CC2)c(C)cc1Nc1nccc(-c2c(-c3cccc(C(=O)Nc4c(F)cccc4F)c3)nc3ccccn23)n1` [Example 148, N-(2,6-difluorophenyl)-3-(3-{2-[(5-methyl-2-(methyloxy)-4-{4-[2-(methylsulfonyl)ethyl]-1-piperazinyl}phenyl)amino]-4-pyrimidinyl}imidazo[1,2-a]pyridin-2-yl)benzamide], the IC50 in assay [1] was < 100 nM; in assay [2], < 250 nM; with COLO205 (colon), < 250 nM; in assay [3], < 100 nM.

Turning to `COCCN1CCN(c2ccc(Nc3nccc(-c4c(-c5cccc(C(=O)Nc6c(F)cccc6F)c5)nc5ccccn45)n3)c(OC)c2)CC1` [Example 240, N-(2,6-difluorophenyl)-3-(3-{2-[(2-(methyloxy)-4-{4-[2-(methyloxy)ethyl]-1-piperazinyl}phenyl)amino]-4-pyrimidinyl}imidazo[1,2-a]pyridin-2-yl)benzamide], the IC50 in assay [1] is < 100 nM; in assay [2], 250 to 1000 nM; in the assay on COLO205 (colon) it was 250 to 1000 nM; in assay [3], < 100 nM.

For `COc1cc(N2CCC(N3CCCCC3)CC2)c(OC)cc1Nc1nccc(-c2c(-c3cccc(C(=O)Nc4c(F)cccc4F)c3)nc3ccccn23)n1` [Example 110, 3-[3-(2-{[4-(1,4′-bipiperidin-1′-yl)-2,5-bis(methyloxy)phenyl]amino}-4-pyrimidinyl)imidazo[1,2-a]pyridin-2-yl]-N-(2,6-difluorophenyl)benzamide], the IC50 in assay [1] is < 100 nM; in assay [2], < 250 nM; with COLO205 (colon), 250 to 1000 nM; in assay [3], < 100 nM.

(Values after patent US20100216779A1 (GLAXOSMITHKLINE LLC, priority 2007, published 2010).)
